Reference: patent US20090124587A1, “METHODS FOR TREATING CANCER USING 17alpha-HYDROXYLASE/C17,20-LYASE INHIBITORS” (priority 2007, published 2009)
Like-named read-outs stand apart in the source and are kept apart here.

Assay: Food effect PK study, two single oral 1000 mg doses of abiraterone acetate, fed (high fat) vs fasted
Type: in vivo, human
Conditions: for concentration at 1.017 h: read-out: Abiraterone Concentration in plasma; for clearance: read-out: Cl F obs (converted); for Vd/F: read-out: Vz F obs; for concentration at 1.033 hr: sample time 1.033 hr; for concentration at 6 hr: sample time 6.000 hr; for concentration at 8 hr: sample time 8.000 hr; for concentration at 1 hr: sample time 1.000 hr; for concentration at 7.983 hr: sample time 7.983 hr
Method: To measure the amount of abiraterone and abiraterone acetate in the samples, these compounds were extracted from 100 uL human plasma using solid phase extraction (SPE) with cation mixed-mode polymer cartridges. Extracts were evaporated to dryness before reconstitution and analysis. Chromatography was carried out using a Luna™ C5 column (5 μm, 50 mm×2.1 mm id) with a gradient mobile phase consisting of 10 mM ammonium acetate and 2% propan-2-ol in acetonitrile. The flow rate was 0.2 mL/min and the run time 10.5 minutes. Abiraterone and abiraterone acetate were ionized using the electrospray interface in positive ion mode. Detection of analytes was via tandem mass spectrometry (MS/MS) in the multiple reaction monitoring (MRM) mode.
PK modeling was conducted using a non-compartmental model, extra vascular input for plasma with WinNonLin Software®. Pharmacokinetic parameters estimated in the model include:
Based on the above results, the PK parameters for a single dose of 1000 mg/day of abiraterone acetate were further studied in the 3 subjects who were administered the 1000 mg/day dose and in 3 additional subjects. Two single oral doses (1000 mg) of abiraterone acetate were administered separately, one concomitantly with food of high fat content and one in fasting state. The first single dose was administered on day −9 with PK blood samples being taken at 1, 2, 4, 6, 8, 24, 48 and 72 hours post dose. The second single dose was administered on day −3 with PK blood samples being taken at 1, 2, 4, 6, 8, 24 and 48 hours post dose for analysis.

[1] = human, plasma, oral, 1000 mg, Patient 13, 1000 mg, Fasted
[2] = human, plasma, oral, 1000 mg, Patient 13, 1000 mg, Fed
[3] = human, plasma, oral, 1000 mg, Patient 13, Fasted
[4] = human, plasma, oral, 1000 mg, Patient 13, Fed
[5] = human, plasma, oral, 1000 mg, Patient 14, 1000 mg, Fasted
[6] = human, plasma, oral, 1000 mg, Patient 14, 1000 mg, Fed
[7] = human, plasma, oral, 1000 mg, Patient 14, Fasted
[8] = human, plasma, oral, 1000 mg, Patient 14, Fed
[9] = human, plasma, oral, 1000 mg, Patient 15, 1000 mg, Fasted
[10] = human, plasma, oral, 1000 mg, Patient 15, 1000 mg, Fed
[11] = human, plasma, oral, 1000 mg, Patient 15, Fasted
[12] = human, plasma, oral, 1000 mg, Patient 15, Fed

C[C@]12CC[C@H](O)CC1=CC[C@@H]1[C@@H]2CC[C@]2(C)C(c3cccnc3)=CC[C@@H]12 [Abiraterone]
Abiraterone plasma levels with food in comparison with fasting (1000 mg, concomitantly with food vs fasting): higher | HL (Patient 13, 1000 mg, Fasted): 10.2 h | HL (Patient 13, 1000 mg, Fed): 10.7 h | concentration at 1.017 h (Patient 13, Fasted, 1000 mg, pre-dose (day −3)): 0.0 nM | concentration at 1.017 h (Patient 13, Fed, 1000 mg, pre-dose (day −9)): 0.0 nM | Abiraterone Concentration in plasma (Patient 13, Fed, 1000 mg, sample time 72.000 hr): BLLOQ^1 | HL (Patient 14, 1000 mg, Fasted): 6.6 h | HL (Patient 14, 1000 mg, Fed): 8.8 h | concentration at 1.017 h (Patient 14, Fasted, 1000 mg, pre-dose (day −9)): 0.0 nM | Abiraterone Concentration in plasma (Patient 14, Fasted, 1000 mg, sample time 48.217 hr): BLLOQ | concentration at 1.017 h (Patient 14, Fed, 1000 mg, pre-dose (day −3)): 0.0 nM | HL (Patient 15, 1000 mg, Fasted): 6.6 h | HL (Patient 15, 1000 mg, Fed): 8.0 h | Abiraterone Concentration in plasma (Patient 15, Fasted, 1000 mg, pre-dose (day −3)): BLLOQ | concentration at 1.017 h (Patient 15, Fed, 1000 mg, pre-dose (day −9)): 0.0 nM | Abiraterone Concentration in plasma (Patient 15, Fed, 1000 mg, sample time 2.000 hr): BLLOQ | Abiraterone Concentration in plasma (Patient 15, Fed, 1000 mg, sample time 70.100 hr): BLLOQ | HL (Patient 19, 1000 mg, Fasted): 8.0 h | HL (Patient 19, 1000 mg, Fed): 10.0 h | concentration at 1.017 h (Patient 19, Fasted, 1000 mg, pre-dose (day −9)): 0.0 nM | Abiraterone Concentration in plasma (Patient 19, Fasted, 1000 mg, sample time 71.950 hr): BLLOQ | concentration at 1.017 h (Patient 19, Fed, 1000 mg, pre-dose (day −3)): 0.0 nM | HL (Patient 20, 1000 mg, Fasted): 15.3 h | HL (Patient 20, 1000 mg, Fed): 18.3 h | concentration at 1.017 h (Patient 20, Fasted, 1000 mg, pre-dose (day −3)): 5.1 nM | Abiraterone Concentration in plasma (Patient 20, Fed, 1000 mg, pre-dose (day −9)): BLLOQ | HL (Patient 21, 1000 mg, Fasted): 12.6 h | HL (Patient 21, 1000 mg, Fed): 9.7 h | concentration at 1.017 h (Patient 21, Fasted, 1000 mg, pre-dose (day −9)): 0 nM | Abiraterone Concentration in plasma (Patient 21, Fed, 1000 mg, pre-dose (day −3)): BLLOQ | difference in mean drug levels between the dosing regimes (fed vs fasted) (extended cohort of six patients): Up to a two fold difference | clearance [1]: 12600 mL/min | Vd/F [1]: 11100 L | clearance [2]: 4240 mL/min | Vd/F [2]: 3920 L | AUC(0-inf) [3]: 3.78 µM·h | AUC(0-t) [3]: 3.7 µM·h | Cmax [3]: 548 nM | Tmax [3]: 1.03 h | concentration at 1.033 hr [3]: 548 nM | concentration at 2.017 hr (human, plasma, oral, 1000 mg, Patient 13, Fasted, sample time 2.017 hr): 500 nM | concentration at 4 hr (human, plasma, oral, 1000 mg, Patient 13, Fasted, sample time 4.000 hr): 304 nM | concentration at 6 hr [3]: 104 nM | concentration at 8 hr [3]: 89.4 nM | concentration at 24.667 hr (human, plasma, oral, 1000 mg, Patient 13, Fasted, sample time 24.667 hr): 34.1 nM | concentration at 48.117 hr (human, plasma, oral, 1000 mg, Patient 13, Fasted, sample time 48.117 hr): 5.8 nM | AUC(0-inf) [4]: 11.2 µM·h | AUC(0-t) [4]: 10.8 µM·h | Cmax [4]: 1180 nM | Tmax [4]: 4 h | concentration at 1 hr [4]: 130 nM | concentration at 2 h (human, plasma, oral, 1000 mg, Patient 13, Fed, sample time 2.000 hr): 675 nM | concentration at 4 h (human, plasma, oral, 1000 mg, Patient 13, Fed, sample time 4.000 hr): 1180 nM | concentration at 7.983 hr [4]: 392 nM | concentration at 23.983 hr (human, plasma, oral, 1000 mg, Patient 13, Fed, sample time 23.983 hr): 93.7 nM | concentration at 48.5 hr (human, plasma, oral, 1000 mg, Patient 13, Fed, sample time 48.500 hr): 26.8 nM | clearance [5]: 32600 mL/min | Vd/F [5]: 18500 L | clearance [6]: 4050 mL/min | Vd/F [6]: 3070 L | AUC(0-inf) [7]: 1.46 µM·h | AUC(0-t) [7]: 1.35 µM·h | Cmax [7]: 205 nM | Tmax [7]: 4.07 h | concentration at 1 hr [7]: 76.3 nM | concentration at 2 hr (human, plasma, oral, 1000 mg, Patient 14, Fasted, sample time 2.000 hr): 82.5 nM | concentration at 4.067 hr (human, plasma, oral, 1000 mg, Patient 14, Fasted, sample time 4.067 hr): 205 nM | concentration at 6.05 hr (human, plasma, oral, 1000 mg, Patient 14, Fasted, sample time 6.050 hr): 99.8 nM | concentration at 8.017 hr (human, plasma, oral, 1000 mg, Patient 14, Fasted, sample time 8.017 hr): 48.6 nM | concentration at 24.017 hr (human, plasma, oral, 1000 mg, Patient 14, Fasted, sample time 24.017 hr): 12.1 nM | concentration at 71.333 hr (human, plasma, oral, 1000 mg, Patient 14, Fasted, sample time 71.333 hr): 0 nM | AUC(0-inf) [8]: 11.8 µM·h | AUC(0-t) [8]: 11.6 µM·h | Cmax [8]: 2210 nM | Tmax [8]: 1.03 h | concentration at 1.033 hr [8]: 2210 nM | concentration at 2.033 hr (human, plasma, oral, 1000 mg, Patient 14, Fed, sample time 2.033 hr): 1770 nM | concentration at 4 hr (human, plasma, oral, 1000 mg, Patient 14, Fed, sample time 4.000 hr): 464 nM | concentration at 6 hr [8]: 516 nM | concentration at 7.983 hr [8]: 335 nM | concentration at 24.083 hr (human, plasma, oral, 1000 mg, Patient 14, Fed, sample time 24.083 hr): 79.7 nM | concentration at 47.7 hr (human, plasma, oral, 1000 mg, Patient 14, Fed, sample time 47.700 hr): 14.2 nM | clearance [9]: 18400 mL/min | Vd/F [9]: 10500 L | clearance [10]: 4610 mL/min | Vd/F [10]: 3190 L | AUC(0-inf) [11]: 2.59 µM·h | AUC(0-t) [11]: 2.37 µM·h | Cmax [11]: 420 nM | Tmax [11]: 2.98 h | concentration at 1 hr [11]: 8.7 nM | concentration at 2.983 hr (human, plasma, oral, 1000 mg, Patient 15, Fasted, sample time 2.983 hr): 420 nM | concentration at 3.967 hr (human, plasma, oral, 1000 mg, Patient 15, Fasted, sample time 3.967 hr): 242 nM | concentration at 5.983 hr (human, plasma, oral, 1000 mg, Patient 15, Fasted, sample time 5.983 hr): 131 nM | concentration at 8 hr [11]: 111 nM | concentration at 22.983 hr (human, plasma, oral, 1000 mg, Patient 15, Fasted, sample time 22.983 hr): 22.4 nM | AUC(0-inf) [12]: 10.3 µM·h | AUC(0-t) [12]: 10.1 µM·h | Cmax [12]: 1120 nM | Tmax [12]: 6.08 h | concentration at 1 hr [12]: 0 nM
